Data: paper PMC5218480 (PLoS ONE, 2017)

System: MV-4-11 cells
Test: Gene expression microarray analysis (Affymetrix PrimeView) and GSEA
Format: cell-based, human
Design: RFU PODN (11730768_x_at) / Fold change /veh PODN (11730768_x_at) / RFU LINC00158 (11744669_a_at) / Fold change /veh LINC00158 (11744669_a_at) / RFU DUSP10 (11751237_a_at) / Fold change /veh DUSP10 (11751237_a_at) / RFU ID3 (11757404_x_at) / Fold change /veh ID3 (11757404_x_at) / RFU PLEKHG5 (11737974_s_at) / Fold change /veh PLEKHG5 (11737974_s_at) / RFU LRRC4B (11730491_at) / Fold change /veh LRRC4B (11730491_at) / RFU GIMAP4 (11747438_a_at) / Fold change /veh GIMAP4 (11747438_a_at) / RFU KRT8 (11758183_x_at) / Fold change /veh KRT8 (11758183_x_at) / RFU CNN1 (11734310_a_at) / Fold change /veh CNN1 (11734310_a_at) / RFU VPS37D (11726825_at) / Fold change /veh VPS37D (11726825_at) / RFU C10orf10 (11716522_x_at) / Fold change /veh C10orf10 (11716522_x_at) / RFU KIR2DL2 /// KIR2DL4 /// KIR2DL5A /// KIR2DL5B /// KIR2DS1 /// KIR2DS2 /// KIR2DS3 /// KIR2DS4 /// KIR3DL3 /// KIR3DL3 /// KIR3DS1 (11738374_at) / Fold change /veh KIR2DL2 /// KIR2DL4 /// KIR2DL5A /// KIR2DL5B /// KIR2DS1 /// KIR2DS2 /// KIR2DS3 /// KIR2DS4 /// KIR3DL3 /// KIR3DL3 /// KIR3DS1 (11738374_at) / RFU C1QL1 (11718748_at) / Fold change /veh C1QL1 (11718748_at) / RFU TMPRSS4 (11747572_a_at) / Fold change /veh TMPRSS4 (11747572_a_at) / RFU HAMP (11756126_x_at) / Fold change /veh HAMP (11756126_x_at) / RFU RNFT2 (11725882_a_at) / Fold change /veh RNFT2 (11725882_a_at) / RFU NR4A2 (11747474_a_at) / Fold change /veh NR4A2 (11747474_a_at) / RFU ABCC12 (11746883_a_at) / Fold change /veh ABCC12 (11746883_a_at) / RFU TMEM136 (11760407_x_at) / Fold change /veh TMEM136 (11760407_x_at) / RFU CLDN22 /// WWC2 (11732394_at) / Fold change /veh CLDN22 /// WWC2 (11732394_at) / RFU HLA-DPB1 (11760878_x_at) / Fold change /veh HLA-DPB1 (11760878_x_at) / RFU SPINT1 (11716480_a_at) / Fold change /veh SPINT1 (11716480_a_at) / RFU GAP43 (11754022_s_at) / Fold change /veh GAP43 (11754022_s_at) / RFU A4GNT (11735810_at) / Fold change /veh A4GNT (11735810_at) / RFU PRB3 (11715151_x_at) / Fold change /veh PRB3 (11715151_x_at) / RFU TUBB4B (11761932_at) / Fold change /veh TUBB4B (11761932_at) / RFU CAPN14 (11732068_a_at) / Fold change /veh CAPN14 (11732068_a_at) / RFU TMCC2 (11721928_a_at) / Fold change /veh TMCC2 (11721928_a_at) / RFU IRGQ (11745062_a_at) / Fold change /veh IRGQ (11745062_a_at) / RFU FAM174B (11720279_a_at) / Fold change /veh FAM174B (11720279_a_at) / RFU TMPRSS4 (11748680_a_at) / Fold change /veh TMPRSS4 (11748680_a_at) / RFU FAM212B (11763350_a_at) / Fold change /veh FAM212B (11763350_a_at) / RFU PLEKHG5 (11743358_a_at) / Fold change /veh PLEKHG5 (11743358_a_at) / RFU ZSCAN30 (11745921_a_at) / Fold change /veh ZSCAN30 (11745921_a_at) / RFU CMKLR1 (11741424_a_at) / Fold change /veh CMKLR1 (11741424_a_at) / RFU LOC101060620 /// MAPK8IP1 (11723275_at) / Fold change /veh LOC101060620 /// MAPK8IP1 (11723275_at) / RFU SPTSSB (11747773_x_at) / Fold change /veh SPTSSB (11747773_x_at) / RFU PRSS12 (11739890_at) / Fold change /veh PRSS12 (11739890_at) / RFU BIN1 (11741810_x_at) / Fold change /veh BIN1 (11741810_x_at) / RFU WNT11 (11732464_a_at) / Fold change /veh WNT11 (11732464_a_at) / RFU C10orf10 (11716521_a_at) / Fold change /veh C10orf10 (11716521_a_at) / RFU C5orf56 (11738089_at) / Fold change /veh C5orf56 (11738089_at) / RFU CYB561 (11721691_x_at) / Fold change /veh CYB561 (11721691_x_at) / RFU ANKRD19P (11752326_a_at) / Fold change /veh ANKRD19P (11752326_a_at) / RFU OR2T12 /// OR2T33 /// OR2T8 (11738714_s_at) / Fold change /veh OR2T12 /// OR2T33 /// OR2T8 (11738714_s_at) / RFU VCAN (11748164_a_at) / Fold change /veh VCAN (11748164_a_at) / RFU JSRP1 (11732532_at) / Fold change /veh JSRP1 (11732532_at) / RFU KRTAP10-11 (11738290_x_at) / Fold change /veh KRTAP10-11 (11738290_x_at) / RFU MYO3A (11730013_a_at) / Fold change /veh MYO3A (11730013_a_at) / RFU EBF3 (11725865_a_at) / Fold change /veh EBF3 (11725865_a_at) / RFU CAMK2N1 (11719241_x_at) / Fold change /veh CAMK2N1 (11719241_x_at) / RFU C5orf56 (11738088_a_at) / Fold change /veh C5orf56 (11738088_a_at) / RFU OLFML3 (11715873_a_at) / Fold change /veh OLFML3 (11715873_a_at) / RFU LOC100653217 /// NTM (11731650_a_at) / Fold change /veh LOC100653217 /// NTM (11731650_a_at) / RFU MAPK11 (11762145_a_at) / Fold change /veh MAPK11 (11762145_a_at) / RFU FIZ1 (11724087_x_at) / Fold change /veh FIZ1 (11724087_x_at) / RFU OASL (11726364_x_at) / Fold change /veh OASL (11726364_x_at) / RFU SOX15 (11748057_x_at) / Fold change /veh SOX15 (11748057_x_at) / RFU CD79A (11719716_a_at) / Fold change /veh CD79A (11719716_a_at) / RFU HIST1H1D (11736915_at) / Fold change /veh HIST1H1D (11736915_at) / RFU CASKIN2 (11723855_a_at) / Fold change /veh CASKIN2 (11723855_a_at) / RFU LOC730098 (11760151_x_at) / Fold change /veh LOC730098 (11760151_x_at) / RFU OR4N2 (11742367_at) / Fold change /veh OR4N2 (11742367_at) / RFU PRRT2 (11749266_a_at) / Fold change /veh PRRT2 (11749266_a_at) / RFU SNX32 (11753110_a_at) / Fold change /veh SNX32 (11753110_a_at) / RFU CDHR5 (11726645_a_at) / Fold change /veh CDHR5 (11726645_a_at) / RFU RCAN1 (11760418_a_at) / Fold change /veh RCAN1 (11760418_a_at) / RFU FAM167A (11723789_a_at) / Fold change /veh FAM167A (11723789_a_at) / RFU FAM26E (11764081_at) / Fold change /veh FAM26E (11764081_at) / RFU ISYNA1 (11749810_s_at) / Fold change /veh ISYNA1 (11749810_s_at) / RFU ACY1 (11761880_at) / Fold change /veh ACY1 (11761880_at) / RFU 11764098_at / Fold change /veh 11764098_at / RFU SAMD14 (11745864_x_at) / Fold change /veh SAMD14 (11745864_x_at) / RFU NPB (11741838_a_at) / Fold change /veh NPB (11741838_a_at) / RFU TMPRSS6 (11731388_a_at) / Fold change /veh TMPRSS6 (11731388_a_at) / RFU KRTAP10-2 (11738614_at) / Fold change /veh KRTAP10-2 (11738614_at) / RFU ARHGAP8 /// PRR5-ARHGAP8 (11727945_x_at) / Fold change /veh ARHGAP8 /// PRR5-ARHGAP8 (11727945_x_at) / RFU KRTAP5-7 /// NADSYN1 (11734609_at) / Fold change /veh KRTAP5-7 /// NADSYN1 (11734609_at) / RFU RASL12 (11751679_a_at) / Fold change /veh RASL12 (11751679_a_at) / RFU CDKN2B (11736163_a_at) / Fold change /veh CDKN2B (11736163_a_at) / RFU PRF1 (11729649_at) / Fold change /veh PRF1 (11729649_at) / RFU, ZNF638 /// ZNF638-IT1 / Fold change vs veh, ZNF638 /// ZNF638-IT1 / RFU, PANK3 / Fold change vs veh, PANK3 / RFU, SH3YL1 / Fold change vs veh, SH3YL1 / RFU, ZEB2 / Fold change vs veh, ZEB2 / RFU, NRIP1 / Fold change vs veh, NRIP1 / RFU, PTTG1IP / Fold change vs veh, PTTG1IP / RFU, CAPN2 / Fold change vs veh, CAPN2 / RFU, MED14 / Fold change vs veh, MED14 / RFU, SNORA58 / Fold change vs veh, SNORA58 / RFU, C1orf63 / Fold change vs veh, C1orf63 / RFU, LRRFIP1 / Fold change vs veh, LRRFIP1 / RFU, NDUFAF7 / Fold change vs veh, NDUFAF7 / RFU, SLC12A2 / Fold change vs veh, SLC12A2 / RFU, IBTK / Fold change vs veh, IBTK / RFU, ESF1 / Fold change vs veh, ESF1 / Fold change vs veh, TMEM50B / RFU, TAOK1 / Fold change vs veh, TAOK1 / RFU, ACBD3 / Fold change vs veh, ACBD3 / RFU, TMA16 / Fold change vs veh, TMA16 / RFU, RWDD3 / Fold change vs veh, RWDD3 / RFU, BCAT1 / Fold change vs veh, BCAT1 / RFU, EDEM3 / Fold change vs veh, EDEM3 / RFU, TMEM33 / Fold change vs veh, TMEM33 / RFU, WDR75 / Fold change vs veh, WDR75 / RFU, AHCTF1 / Fold change vs veh, AHCTF1 / RFU, TFRC / Fold change vs veh, TFRC / RFU, ZDHHC17 / Fold change vs veh, ZDHHC17 / RFU, NOM1 / Fold change vs veh, NOM1 / RFU, ARL8B / Fold change vs veh, ARL8B / RFU, ZBTB11 / Fold change vs veh, ZBTB11 / RFU, TAMM41 / Fold change vs veh, TAMM41 / RFU, KIAA1704 /// LOC100996395 / Fold change vs veh, KIAA1704 /// LOC100996395 / RFU, ING1 / Fold change vs veh, ING1 / RFU, TRMT61B / Fold change vs veh, TRMT61B / RFU, FUBP3 / Fold change vs veh, FUBP3 / RFU, TP53 / Fold change vs veh, TP53 / RFU, TNKS2 / Fold change vs veh, TNKS2 / RFU, ZFP14 / Fold change vs veh, ZFP14 / RFU, ACTR2 / Fold change vs veh, ACTR2 / RFU, PPP3R1 / Fold change vs veh, PPP3R1 / RFU, PIK3R1 / Fold change vs veh, PIK3R1 / RFU, HNRNPA1 / Fold change vs veh, HNRNPA1 / RFU, RNF170 / Fold change vs veh, RNF170 / RFU, ZNF28 / Fold change vs veh, ZNF28 / RFU, RNGTT / Fold change vs veh, RNGTT / RFU, OGT / Fold change vs veh, OGT / RFU, BRD1 / Fold change vs veh, BRD1 / RFU, MARS / Fold change vs veh, MARS / RFU, ZNF655 / Fold change vs veh, ZNF655 / RFU, FAHD1 / Fold change vs veh, FAHD1 / RFU, BDP1 / Fold change vs veh, BDP1 / RFU, LRRCC1 / Fold change vs veh, LRRCC1 / RFU, ARID1A / Fold change vs veh, ARID1A / RFU, ZNF146 / Fold change vs veh, ZNF146 / RFU, ZNF330 / Fold change vs veh, ZNF330 / RFU, GPN3 / Fold change vs veh, GPN3 / RFU, C9orf123 / Fold change vs veh, C9orf123 / RFU, N4BP2L2 / Fold change vs veh, N4BP2L2 / RFU, ARFIP1 / Fold change vs veh, ARFIP1 / RFU, FAM179B / Fold change vs veh, FAM179B / RFU, BCL10 / Fold change vs veh, BCL10 / RFU, UHRF1BP1L / Fold change vs veh, UHRF1BP1L / RFU, BET1 / Fold change vs veh, BET1 / RFU, CNOT2 / Fold change vs veh, CNOT2 / RFU, ZNF268 / Fold change vs veh, ZNF268 / Fold change vs veh, ZNF507 / RFU, DGCR2 / Fold change vs veh, DGCR2 / RFU, WDSUB1 / Fold change vs veh, WDSUB1 / Fold change vs veh, HSP90B1 /// MIR3652 / RFU, ADSS / Fold change vs veh, ADSS / RFU, GK / Fold change vs veh, GK / RFU, ZNF148 / Fold change vs veh, ZNF148 / RFU, TAF9 / Fold change vs veh, TAF9 / RFU, SLC1A5 / Fold change vs veh, SLC1A5 / RFU, SLMO2 / Fold change vs veh, SLMO2 / RFU, ABCC4 / Fold change vs veh, ABCC4 / RFU, LOC101060439 /// RAP1B / Fold change vs veh, LOC101060439 /// RAP1B / RFU, RFX7 / Fold change vs veh, RFX7 / RFU, GTPBP10 / Fold change vs veh, GTPBP10 / RFU, CNEP1R1 / Fold change vs veh, CNEP1R1 / RFU, BIVM-ERCC5 /// ERCC5 / Fold change vs veh, BIVM-ERCC5 /// ERCC5 / RFU, ILF3 / Fold change vs veh, ILF3 / RFU 11762660_at / Fold change /veh 11762660_at / RFU VCAN (11757783_s_at) / Fold change /veh VCAN (11757783_s_at) / RFU DDX43 (11728927_at) / Fold change /veh DDX43 (11728927_at) / RFU KRT8 (11758188_x_at) / Fold change /veh KRT8 (11758188_x_at) / RFU NKD1 (11759106_at) / Fold change /veh NKD1 (11759106_at) / RFU SRD5A1 (11742802_a_at) / Fold change /veh SRD5A1 (11742802_a_at) / RFU TPSAB1 /// TPSB2 (11721975_s_at) / Fold change /veh TPSAB1 /// TPSB2 (11721975_s_at) / RFU GSTM3 (11746129_a_at) / Fold change /veh GSTM3 (11746129_a_at) / RFU IL23R (11737362_x_at) / Fold change /veh IL23R (11737362_x_at) / RFU TMEM51 (11727254_a_at) / Fold change /veh TMEM51 (11727254_a_at) / RFU PIWIL2 (11732686_x_at) / Fold change /veh PIWIL2 (11732686_x_at) / RFU ORM1 (11744905_x_at) / Fold change /veh ORM1 (11744905_x_at) / RFU CCDC152 (11743942_at) / Fold change /veh CCDC152 (11743942_at) / RFU ECM1 (11717891_a_at) / Fold change /veh ECM1 (11717891_a_at) / RFU IL23R (11748794_a_at) / Fold change /veh IL23R (11748794_a_at) / RFU TNFAIP8L3 (11732012_x_at) / Fold change /veh TNFAIP8L3 (11732012_x_at) / RFU MBOAT4 (11741988_at) / Fold change /veh MBOAT4 (11741988_at) / RFU 11764193_at / Fold change /veh 11764193_at / RFU TMEM53 (11763286_at) / Fold change /veh TMEM53 (11763286_at) / RFU MAGEB2 (11727129_at) / Fold change /veh MAGEB2 (11727129_at) / RFU TMEM200A (11744735_a_at) / Fold change /veh TMEM200A (11744735_a_at) / RFU CCDC152 (11751479_a_at) / Fold change /veh CCDC152 (11751479_a_at) / RFU FAM211A (11726209_a_at) / Fold change /veh FAM211A (11726209_a_at) / RFU RGS16 (11746705_a_at) / Fold change /veh RGS16 (11746705_a_at) / RFU VCAN (11755009_s_at) / Fold change /veh VCAN (11755009_s_at) / RFU RHOB (11743442_s_at) / Fold change /veh RHOB (11743442_s_at) / RFU RGS16 (11720943_a_at) / Fold change /veh RGS16 (11720943_a_at) / RFU RGS16 (11720944_at) / Fold change /veh RGS16 (11720944_at) / RFU, VPS4B / Fold change vs veh, VPS4B / RFU, CREB1 / Fold change vs veh, CREB1 / RFU, DNAJC13 / Fold change vs veh, DNAJC13 / RFU, GNAQ / Fold change vs veh, GNAQ / RFU, CDK5R1 / Fold change vs veh, CDK5R1 / RFU, ZRANB3 / Fold change vs veh, ZRANB3 / RFU, CUL4A / Fold change vs veh, CUL4A / RFU, CCNY / Fold change vs veh, CCNY / RFU, UFL1 / Fold change vs veh, UFL1 / RFU, COG3 / Fold change vs veh, COG3 / RFU, DIAPH2 / Fold change vs veh, DIAPH2 / RFU, SKA2 / Fold change vs veh, SKA2 / RFU, AFF3 / Fold change vs veh, AFF3 / RFU, LMF1 / Fold change vs veh, LMF1 / RFU, IPO11 / Fold change vs veh, IPO11 / RFU, DFFB / Fold change vs veh, DFFB / RFU, FOXP1 / Fold change vs veh, FOXP1 / RFU, CARD8 / Fold change vs veh, CARD8 / RFU, STRN3 / Fold change vs veh, STRN3 / RFU, ADK / Fold change vs veh, ADK / RFU, RASSF2 / Fold change vs veh, RASSF2 / RFU, WIPF1 / Fold change vs veh, WIPF1 / RFU, LARP1B / Fold change vs veh, LARP1B / RFU, RASA1 / Fold change vs veh, RASA1 / RFU, RB1 / Fold change vs veh, RB1 / RFU, PPFIA1 / Fold change vs veh, PPFIA1 / RFU, MAT2A / Fold change vs veh, MAT2A / RFU, CCT5 / Fold change vs veh, CCT5 / RFU, WDR92 / Fold change vs veh, WDR92 / RFU, CUX1 / Fold change vs veh, CUX1 / RFU, TTC7A / Fold change vs veh, TTC7A / RFU, TMEM135 / Fold change vs veh, TMEM135 / RFU, DEPTOR / Fold change vs veh, DEPTOR / RFU, CPM / Fold change vs veh, CPM / RFU, DNAJB6 / Fold change vs veh, DNAJB6 / RFU, CACNA2D3 / Fold change vs veh, CACNA2D3 / RFU, DTX4 / Fold change vs veh, DTX4 / RFU, TFCP2 / Fold change vs veh, TFCP2 / RFU, GMCL1 /// GMCL1P1 / Fold change vs veh, GMCL1 /// GMCL1P1 / RFU, AEBP2 / Fold change vs veh, AEBP2 / RFU, SNHG1 /// SNORD22 /// SNORD25 /// SNORD26 /// SNORD27 /// SNORD28 /// SNORD29 /// SNORD31 / Fold change vs veh, SNHG1 /// SNORD22 /// SNORD25 /// SNORD26 /// SNORD27 /// SNORD28 /// SNORD29 /// SNORD31 / Fold change (Aza/veh), C12orf56 (ProbeSet 11735607_a_at) / Fold change (ACY-1035/veh), C12orf56 (ProbeSet 11735607_a_at) / Fold change (Aza/veh), FGFR1OP (ProbeSet 11751329_s_at) / Fold change (ACY-1035/veh), FGFR1OP (ProbeSet 11751329_s_at) / Fold change (Aza/veh), VPS36 (ProbeSet 11739960_a_at) / Fold change (ACY-1035/veh), VPS36 (ProbeSet 11739960_a_at) / RFU SYPL1 (11715823_x_at) / Fold change /veh SYPL1 (11715823_x_at) / RFU IGFBP7 (11715501_s_at) / Fold change /veh IGFBP7 (11715501_s_at) / RFU REEP3 (11722064_at) / Fold change /veh REEP3 (11722064_at) / RFU IGLL1 (11728026_x_at) / Fold change /veh IGLL1 (11728026_x_at): dose or concentration left out as unconfirmed
Details: ProbeSet 11717876_a_at; LIST D

## Nc1ccc(-c2cccs2)cc1NC(=O)c1ccc2c(c1)cc(C1CC1)n2CCN1CCOCC1 [ACY-1035]
  RFU, PPFIA1: 30.94 RFU
